Reference: patent publication US12240841B2, “FXR small molecule agonist and preparation method therefor and use thereof” (Shanghai Institute of Materia Medica, Chinese Academy of …, priority 2019, dated 2025)

Experiments:
[1] = target: T1, recombinant GST-FXR fusion protein (Homo sapiens, UniProt Q96RI1); assay: FXR activity at the molecular level (AlphaScreen); format: biochemical
T1 sequence (Q96RI1 1-486): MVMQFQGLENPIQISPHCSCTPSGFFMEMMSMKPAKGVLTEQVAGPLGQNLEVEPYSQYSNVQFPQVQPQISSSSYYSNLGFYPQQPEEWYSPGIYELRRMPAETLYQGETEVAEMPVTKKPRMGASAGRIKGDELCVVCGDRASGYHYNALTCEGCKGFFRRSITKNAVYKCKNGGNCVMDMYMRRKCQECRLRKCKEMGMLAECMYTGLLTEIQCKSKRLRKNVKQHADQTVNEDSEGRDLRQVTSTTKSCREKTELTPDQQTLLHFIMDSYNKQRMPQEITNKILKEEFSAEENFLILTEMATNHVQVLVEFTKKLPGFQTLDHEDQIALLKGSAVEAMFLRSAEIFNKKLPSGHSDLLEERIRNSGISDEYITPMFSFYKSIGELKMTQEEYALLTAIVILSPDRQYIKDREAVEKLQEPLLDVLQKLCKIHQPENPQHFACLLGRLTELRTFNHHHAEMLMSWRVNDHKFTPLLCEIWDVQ
Description: Test Method for FXR Activity at the Molecular Level
FXR activity was determined using recombinant GST-FXR fusion protein by Perkin Elmer's AlphaScreen detection reagent. The reaction in this method was carried out in a 384-well plate, and the total reaction volume was 15 μL. The mixture of protein, agonist, co-regulatory factor, AlphaScreen® acceptor beads and AlphaScreen® donor beads was reacted in a buffer containing Tris-HCl 50 mM (pH7.4), 50 mM NaCl, BSA 0.1%, and 1 mM DTT. The FXR activity was reflected by the fluorescence signal intensity at 570 nm wavelength detected by the Envision fluorescence detector. The value of EC50 was calculated by the software Graphpad Prism 5.

[2] = target: T2, FXR receptor (Homo sapiens, UniProt Q96RI1); assay: FXR activity at the cell level (FXRE luciferase reporter in 293T cells); format: cell-based; conditions: 293T cells; for Activity relative to OCA (%) 10 μM: luciferase reporter; for EC50: FXRE luciferase reporter, read-out: EC50 (cell level)
T2 construct: expressed in transfected cells; host or cells: 293T cells
T2 sequence (Q96RI1 1-486): T1 sequence (Q96RI1 1-486)
Description: The cells were cultured for 24 hours to ensure plasmid expression. Then the FXR receptor agonist to be tested was added and acted for 18 hours. The fluorescence intensity was detected using luciferase kit (steady-Glo Luciferase Assay system) to reflect the compound's activation efficiency on the FXR receptor. […] The appropriate concentration interval was selected, and the dose-dependent relationship, that is, the EC50 value, was calculated.

[3] = test system: TAA-induced hepatic fibrosis model rats; assay: TAA-induced hepatic fibrosis model rats; format: in vivo, rat
Description: 1) Pharmacodynamic Evaluation of Compound 1 (LXF-32) on TAA-Induced Hepatic Fibrosis Model Rats
In this experiment, TAA induced hepatic fibrosis model rats were used to investigate the effect of long-term oral administration of compound 1 on hepatic fibrosis in the model rats.
Experimental method: Male SD rats were intraperitoneally injected with thioacetamide (TAA, dissolved in normal saline) at a dose of 150 mg/kg three times a week to induce a liver fibrosis model. Four weeks after the model was made, the blood was taken from the retro-ocular venous plexus of the rats to detect serum ALP indicators. […] During the administration period, the animal's food intake and body weight were monitored. After 2 weeks of administration, the blood was taken from the retro-ocular venous plexus of the rats to detect serum ALP indicators. After 4 weeks of administration, the blood was taken from the retro-ocular venous plexus and the rats were dislocated and sacrificed. The livers were taken out and weighed. Part of the liver was fixed with 4% paraformaldehyde, and part of the liver was frozen at −80° C. During the whole experiment, another 8 rats in the same cage were injected intraperitoneally with the same volume of normal saline as the system normal control group (WT). This experiment detected indicators such as the level of liver function index ALP in serum, the expression of α-SMA and Col1α1 (fibrosis-related genes) gene level in the liver, the content of hydroxyproline (a characteristic amino acid of collagen) in the liver, and the pathological changes of the liver (Sirius scarlet stain), etc., thereby reflecting whether the compound has the effect of relieving liver fibrosis.

[4] = test system: CCL4-induced hepatic fibrosis model mice; assay: CCL4-induced hepatic fibrosis model mice; format: in vivo, mouse
Description: In this experiment, CCL4 induced hepatic fibrosis model mice were used to investigate the effect of long-term oral administration of compound 8 on hepatic fibrosis in the model mice.
Experimental method: Male C57BL/6j mice were injected intraperitoneally with 2 mL/kg, 10% CCl4 (dissolved in olive oil) three times a week to induce liver fibrosis model. Two weeks after the model was made, the blood was taken from the retro-ocular venous plexus of the mice to detect serum ALT, AST, TBA and LDH indicators. According to ALT, AST, TBA, LDH, body weight and other indicators, the mice were randomly divided into 5 groups. […] During the administration period, the animals' food intake and body weight were monitored. After 3 weeks of administration, the blood was taken from the retro-ocular venous plexus of the mice to detect serum ALT, AST, TBA and LDH indicators. After 6 weeks of administration, the blood was taken from the retro-ocular venous plexus and the mice were dislocated and sacrificed. The livers were taken out and weighed. Part of the liver was fixed with 4% paraformaldehyde, and part of the liver was frozen at −80° C. During the whole experiment, another 10 mice in the same cage were intraperitoneally injected with the same volume of olive oil as the system normal control group (WT).
This experiment detected indicators such as the levels of liver function indicators ALT, AST, TBA, LDH in serum, the expression of α-SMA and Col1α1 gene levels in the liver, and the pathological changes of the liver (Sirius scarlet stain), etc., thereby reflecting whether the compound has the effect of relieving liver fibrosis.

[5] = 20 mg/kg oral once a day, 4 weeks
[6] = high-dose 20 mg/kg oral once a day, 6 weeks
[7] = low-dose 6 mg/kg oral once a day, 6 weeks

## O=c1[nH]c(-c2cccc(N3CCC(OCc4c(-c5c(Cl)cccc5Cl)noc4C4CC4)CC3)c2)no1 [Example 1]
[1]
  EC50: 446 nM
[2]
  Activity relative to OCA (%) 10 μM: 109%
  EC50: 110 nM
[3]; [5]
  collagen content in the liver (Sirius scarlet stained sections): reduced the collagen content in the liver, because there were large differences within the model group, and there was no statistical difference
  content of hydroxyproline in liver tissue: reduced
  expression of Col1α1 mRNA in liver tissue: significantly down-regulated
  expression of α-SMA mRNA in liver tissue: significantly down-regulated
[3]; 20 mg/kg oral once a day, 4 weeks, vs model control
  level of ALP in serum: significantly reduced
[3]; long-term administration
  effect on liver fibrosis (summary): a certain alleviating effect

## O=c1[nH]c(-c2ccc(N3CCC(OCc4c(-c5ccccc5C(F)(F)F)noc4C4CC4)CC3)cc2)no1 [Example 8]
[1]
  EC50: 104 nM
[2]
  Activity relative to OCA (%) 10 μM: 88%
  EC50: 5 nM
[4]; high-dose 20 mg/kg
  collagen content in the liver (Sirius scarlet stained sections): significantly reduced
[4]; [6]
  effect on LDH in serum: little effect
  level of ALT in serum: significantly reduced
  level of AST in serum: significantly reduced
  level of TBA in serum: significantly reduced
[4]; high-dose 20 mg/kg, 6 weeks
  expression of col1α1 in the liver: down-regulated
  expression of α-SMA in the liver: significantly down-regulated
[4]; long-term administration
  effect on liver fibrosis (summary): a certain alleviating effect
[4]; low-dose 6 mg/kg
  collagen content in the liver (Sirius scarlet stained sections): significantly reduced
  effect on liver collagen content compared with the low-dose OCA group: slightly better
[4]; [7]
  effect on LDH in serum: little effect
  level of ALT in serum: significantly reduced
  level of AST in serum: significantly reduced
  level of TBA in serum: significantly reduced
[4]; low-dose 6 mg/kg, 6 weeks
  effect on serum liver function indicators compared with the low-dose OCA group: slightly better

## CC[C@H]1[C@@H](O)[C@@H]2[C@H](CC[C@]3(C)[C@@H]([C@H](C)CCC(=O)O)CC[C@@H]23)[C@@]2(C)CC[C@@H](O)C[C@@H]12 [OCA, reference compound]
[4]; [6]
  level of ALT in serum: significantly reduced
  level of AST in serum: significantly reduced
  level of TBA in serum: significantly reduced
[4]; [7]
  level of TBA in serum: lowering effect
